Measured values: publication PMC12655060, “Modified Hevein-like Peptide from Amaranthus caudatus as a Promising Agent Against Pathogenic Candida Species” (Pharmaceutics, 2025)
≈ marks a conversion by molar mass, not a printed value. Where “and” joins values, the source holds several entries; their conditions need not be identical. Equal entries are not always repeated. Where two headings read alike, the source gives them in different places. Positions of bridges follow the written chain, without caps; N, C: chain ends. No end group written: not given here.

Experiments:
[1] = test system: C. albicans 8.2; experiment: Antifungal microdilution assay; assay type: cell-based; settings: Candida albicans, Sabouraud broth
Procedure: (§1) Briefly, fungal cells at a concentration of 4 × 10^4 cells/mL in the Sabouraud broth were mixed with equal volumes of serial dilutions of the peptide in water (final volume 100 μL and pH 6.0) and incubated at 30 °C for 24 h. Inhibition of fungal growth was assessed relative to the peptide-free control, based on absorbance at 630 nm and microscopic analysis. MIC50 and MIC were defined as minimal concentrations of the peptide, causing 50 and 100% inhibition of fungal growth. […] The effects of heating and reduction in disulfide bonds on the activity of the peptide towards C. albicans ATCC 18804 was also tested. […] Tobacco defensin NaD1, whose structure is also stabilized by disulfide bonds, was used for comparison in these experiments. The effect of reduced L-glutathione (AppliChem, Darmstadt, Germany), a component of RPMI-1640 medium, at a final concentration of 3.25 μM, was also studied.
(§2) Each experiment was conducted twice in triplicate. The microplate wells were pre-treated with 0.1% BSA to minimize adsorption of antifungal agents.

[2] = test system: C. albicans ATCC 18804; assay type: cell-based, Candida albicans
Procedure: (§3) Serial dilutions of the mixture of two combinable substances were added to the equal volumes of fungal cell suspensions in this case. […] Caspofungin or ebselen in 1% DMSO as well as voriconazole in 1% methanol were tested in these experiments.

[3] = test system: C. albicans 8.2; experiment: Prevention of adhesion to the plastic surface; assay type: cell-based, Candida albicans; settings: for Cell adhesion, % / Inhibition of adhesion, %: plastic surface
Procedure: The plates were incubated for 1.5 h at 37 °C; after that, plate wells were washed twice with PBS to remove unattached C. albicans cells. Adherent cells were detached by microplate incubation for 45 min with trypsin/EDTA solution. Enzymatic activity was stopped by an addition of 10% FBS. After that the well contents were scraped, diluted 100-fold with PBS, and plated on Sabouraud agar with glucose and chloramphenicol. In this case, adhesion was calculated as ((N × 100)/5 × 10^5) × 100%, and adhesion inhibition was calculated as described above. These experiments were carried out twice in triplicate.

[4] = test system: C. albicans ATCC 18804; experiment: Resistance induction experiments (serial passage); assay type: cell-based, Candida albicans; settings: passaging at 0.25 × MIC for 24 days; mAc-AMP2 8th and 24th, caspofungin 21, LL-37 24th passage
Procedure: For comparison, the echinocandin caspofungin, human cathelicidin LL-37, and tobacco defensin NaD1 were used in these experiments. C. albicans ATCC 18804 or ATCC 10231 at a concentration of 4 × 10^4 cells/mL were added to serial dilutions of antifungal agents. The 96-well microplates were incubated overnight at 30 °C and MIC values were determined as described above. […] Sequential passaging followed by MIC determination continued for 24 days. […] After that whole cultures as well as single colonies were used for MICs determination to confirm the stability of acquired resistance to the peptide.

[5] = test system: C. albicans ATCC 18804; design: method as in PMID 39770352, PMID 39337545; settings: 2 h, same conditions; cited from earlier work
[6] = test system: C. albicans 8.2; assay type: cell-based, Candida albicans; settings: for [A]/MICA: ratio for mAc-AMP2 in the combination; for [B]/MICB: ratio for the named agent in the combination
Procedure: as §3

[7] = test system: C. albicans 9.1; assay type: cell-based, Candida albicans; settings: for [A]/MICA: ratio for mAc-AMP2 in the combination; for [B]/MICB: ratio for the named agent in the combination
Procedure: as §3

[8] = test system: C. albicans ATCC 18804; settings: for MIC, RPMI-1640 / MIC, ½Sabouraud broth: Table S4; for antifungal activity in RPMI-1640: at a concentration of 50 μM
Procedure: as §1, §2

[9] = test system: C. albicans ATCC 18804; experiment: Calcofluor White binding assay (cell wall chitin content); assay type: cell-based, Candida albicans; settings: at MIC
Procedure: Polyene antimycotic amphotericin B (AmB) was also used in these experiments. […] Cell cultures were harvested, washed twice with PBS, and stained with 20 μg/mL CFW in PBS for 30 min. After that stained cells were washed three times with PBS and the cell density of each group was adjusted to 10^6 cells/mL using Cell Counter LUNA-II (Logos Biosystems, Anyang-si, Republic of Korea) and trypan blue. Unstained or stained untreated by antifungal agent cells were used as negative and positive controls, respectively. Fluorescence intensities were measured at 20 °C using a Hitachi F-2710 spectrofluorometer (Hitachi High Technologies America Inc., Pleasanton, CA, USA) with excitation and emission wavelengths of 350 nm (10 nm width) and 435 nm, respectively. Results were expressed as % of fluorescence intensity in comparison to positive control. This study was performed twice in triplicate.

[10] = test system: C. albicans 9.1; settings: 12.5 μM (2 × MIC) and 25 μM (4 × MIC), same conditions; cited from earlier work
[11] = test system: C. albicans 8.2; settings: 12.5 μM (2 × MIC) and 25 μM (4 × MIC), same conditions; cited from earlier work
[12] = test system: Caco-2 cells in a monolayer; experiment: Cytotoxicity assay (resazurin); assay type: cell-based, human; settings: 12.5 µM, 24 h
Procedure: Then 10 µL of resazurin at a concentration of 0.7 mM was added and the incubation was continued for 4 h. Untreated cells and cells in the presence of 0.1% Triton X-100 were used as negative and positive controls, respectively. The cell viability was estimated by resorufin fluorescence registered at 595 nm as (Fsample/Fcontrol) × 100%. Wells containing no cells were used to subtract background fluorescence. This experiment was carried out twice in duplicate.

[13] = combination of the named agent with mAc-AMP2
[14] = ratio of mAc-AMP2 concentration in the combination with the named agent to its MIC
[15] = ratio of the named agent's concentration in combination with mAc-AMP2 to its MIC

In the case of CC[C@H](C)C[C@H](C)CCCCCCCCC(=O)N[C@H]1C[C@@H](O)[C@@H](NCCN)NC(=O)[C@@H]2[C@@H](O)CCN2C(=O)[C@H]([C@H](O)CCN)NC(=O)[C@H]([C@H](O)[C@@H](O)c2ccc(O)cc2)NC(=O)[C@@H]2C[C@@H](O)CN2C(=O)[C@H]([C@@H](C)O)NC1=O [Caspofungin], the MIC [1] is reported as 0.04 µg/mL (≈ 0.0366 µM), the FICI [2, 13] is reported as 2 and the “[A]/MICA” value [2, 14] is reported as 1. For the same compound, the “[B]/MICB” value [2, 15] was 1, the inhibition at 5.12 µg/mL ([3]; Candida albicans, 8.2, read-out: Inhibition of adhesion) was ~40% and the “MIC increase during serial passage” value [4] was “eight-fold”. The “effect on PI uptake” value [5] was “no effects”.
In the case of O=c1c2ccccc2[se]n1-c1ccccc1 [Ebselen], the FICI ([6]; combination of the named agent with mAc-AMP2, strain 8.2) is reported as 0.75, the “[A]/MICA” value ([6]; strain 8.2) is reported as 0.5 and the “[B]/MICB” value ([6]; strain 8.2) is reported as 0.25. For the same compound, the FICI ([7]; combination of the named agent with mAc-AMP2, strain 9.1) was 1, the “[A]/MICA” value ([7]; strain 9.1) was 0.5 and the “[B]/MICB” value ([7]; strain 9.1) was 0.5. For the same compound, the FICI [2, 13] was 1, the “[A]/MICA” value [2, 14] was 0.5 and the “[B]/MICB” value [2, 15] was 0.5.
With CC[C@H](C)[C@H](NC(=O)[C@H](CCCCN)NC(=O)[C@H](CCC(=O)O)NC(=O)[C@H](CCCCN)NC(=O)[C@H](CO)NC(=O)[C@H](CCCCN)NC(=O)[C@H](CCCNC(=N)N)NC(=O)[C@H](Cc1ccccc1)NC(=O)[C@H](Cc1ccccc1)NC(=O)[C@H](CC(=O)O)NC(=O)CNC(=O)[C@H](CC(C)C)NC(=O)[C@@H](N)CC(C)C)C(=O)NCC(=O)N[C@@H](CCCCN)C(=O)N[C@@H](CCC(=O)O)C(=O)N[C@@H](Cc1ccccc1)C(=O)N[C@@H](CCCCN)C(=O)N[C@@H](CCCNC(=N)N)C(=O)N[C@H](C(=O)N[C@H](C(=O)N[C@@H](CCC(N)=O)C(=O)N[C@@H](CCCNC(=N)N)C(=O)N[C@H](C(=O)N[C@@H](CCCCN)C(=O)N[C@@H](CC(=O)O)C(=O)N[C@@H](Cc1ccccc1)C(=O)N[C@@H](CC(C)C)C(=O)N[C@@H](CCCNC(=N)N)C(=O)N[C@@H](CC(N)=O)C(=O)N[C@@H](CC(C)C)C(=O)N[C@H](C(=O)N1CCC[C@H]1C(=O)N[C@@H](CCCNC(=N)N)C(=O)N[C@H](C(=O)N[C@@H](CCC(=O)O)C(=O)N[C@@H](CO)C(=O)O)[C@@H](C)O)C(C)C)[C@@H](C)CC)C(C)C)[C@@H](C)CC [LL-37] the MIC, RPMI-1640 [8] was > 50 µM, the MIC, ½Sabouraud broth ([8]; ½Sabouraud broth) was 12.5 µM (≈ 56.2 µg/mL) and the “antifungal activity in RPMI-1640” value [8] was “did not exhibit antifungal activity”. The MIC ([8]; microdilution, ½Sabouraud broth, pH 6.0, no salts, no FBS, 30 °C, 24 h, 100% growth inhibition, twice in triplicate) was 12.5 µM, the “[A]/MICA” value [2, 14] was 0.5 and the “[B]/MICB” value [2, 15] was 0.5. For the same compound, the “MIC increase during serial passage” value [4] was “two-fold”.
For C[C@@H](c1ncncc1F)[C@](O)(Cn1cncn1)c1ccc(F)cc1F [Voriconazole], the FICI ([2]; combination with mAc-AMP2, for voriconazole MIC50 values were used) was 2, the “[A]/MICA” value ([2]; ratio for mAc-AMP2 in the combination, for voriconazole MIC50 values were used) was 1 and the “[B]/MICB” value ([2]; ratio for voriconazole in the combination, MIC50 values were used) was 1.
In the case of C[C@@H]1[C@H](O)[C@@H](C)/C=C/C=C/C=C/C=C/C=C/C=C/C=C/[C@H](O[C@@H]2O[C@H](C)[C@@H](O)[C@H](N)[C@@H]2O)C[C@@H]2O[C@](O)(C[C@@H](O)C[C@@H](O)[C@H](O)CC[C@@H](O)C[C@@H](O)CC(=O)O[C@H]1C)C[C@H](O)[C@H]2C(=O)O [amphotericin B], the “fluorescence intensity of Calcofluor White-stained cells” value [9] is given as “reduced” and the “effect on PI uptake” value [5] is given as “no effects”.
For “GIGDPVTCLKSGAICHPVFCPRRYKQIGTCGLPGTKCCKKP (disulfide 8-37, 15-30, 20-38 (inferred)) [HBD2]”, the MIC, RPMI-1640 [8] was > 50 µM, the MIC, ½Sabouraud broth ([8]; ½Sabouraud broth) was 6.25 µM and the “antifungal activity in RPMI-1640” value [8] was “did not exhibit antifungal activity”. For the same compound, the “[A]/MICA” value [2, 14] was 0.5 and the “[B]/MICB” value [2, 15] was 0.5.
With “RECKTESNTFPGICITKPPCRKACISEKFTDGHCSKILRRCLCTKPC (disulfide 3-47, 14-34, 20-41, 24-43 (inferred)) [NaD1]” the MFC ([8]; ATCC 18804, 24 h) was 25 µM, the MIC ([8]; ATCC 18804, 24 h) was 6.25 µM and the MFC ([8]; ATCC 18804, 24 h, pH 6) was 12.5 µM. For the same compound, the MIC ([8]; ATCC 18804, 24 h, pH 6) was 6.25 µM, the FICI ([6]; 8.2) was 1 and the “[A]/MICA” value ([6]; strain 8.2) was 0.5. The “[B]/MICB” value ([6]; strain 8.2) was 0.5, the FICI ([7]; 9.1) was 1 and the “[A]/MICA” value ([7]; strain 9.1) was 0.5. For the same compound, the “[B]/MICB” value ([7]; strain 9.1) was 0.5, the FICI [2] was 0.75 and the “[A]/MICA” value [2, 14] was 0.5. The “[B]/MICB” value [2, 15] was 0.25, the “Cell adhesion, %” value ([3]; 3.13 μM) was 5.29% and the “Cell adhesion, %” value ([3]; 6.25 μM) was 0.96%. The “Inhibition of adhesion, %” value ([3]; 6.25 μM) was 81.32%, the “Cell adhesion, %” value ([3]; 12.5 μM, Sabouraud broth, 1.5 h, 37 °C) was 0.15% and the “Inhibition of adhesion, %” value ([3]; 12.5 μM) was 97.12% and ~100%. The “Cell adhesion, %” value ([3]; 25 μM, Sabouraud broth, 1.5 h, 37 °C) was 0.05%, the “Inhibition of adhesion, %” value ([3]; 25 μM) was 99.03% and the “MIC increase during serial passage” value [4] was “no change in the sensitivity”. For the same compound, the “effect on adhesion to the Caco-2 cell monolayer” value [10] was “effectively inhibited the adhesion” and the “effect on adhesion to the Caco-2 cell monolayer” value [11] was “effectively inhibited the adhesion”.
With melittin the cell death [12] was “about 100%”.
